The source of these data is patent US20120277209A1, “PYRAZINE COMPOUNDS AS PHOSPHODIESTERASE 10 INHIBITORS” (Amgen Inc., priority 2009, published 2012).

By pIC50 is commonly meant the negative decadic logarithm of the IC50, by convention in mol/L.

pIC50: −log10 of the molar value. Some results are limits rather than exact numbers.

In one experiment the target is PDE10 (UniProt Q9Y233). The experiment is described as follows: PDE10 enzyme inhibition, IMAP TR-FRET assay (MPDE10A7 Enzyme Activity and Inhibition). In kind it is biochemical. As to conditions: IC50 class against PDE10; read-out: IC50. How it is done: All compounds were divided in five classes based on their IC50 values against PDE10. The range of the IC50 in each class is as follows:
An IMAP TR-FRET assay was used to analyze the enzyme activity (Molecular Devices Corp., Sunnyvale Calif.). 5 μL of serial diluted PDE10A (BPS Bioscience, San Diego, Calif.) or tissue homogenate was incubated with equal volumes of diluted fluorescein labeled cAMP or cGMP for 60 min in 384-well polystyrene assay plates (Corning, Corning, N.Y.) at room temperature. After incubation, the reaction was stopped by adding 60 μL of diluted binding reagents and was incubated for 3 hours to overnight at room temperature. The plates were read on an Envision (Perkin Elmer, Waltham, Mass.) for time resolved fluorescence resonance energy transfer. The data were analyzed with GraphPad Prism (La Jolla, Calif.).
Enzyme Inhibition. To check the inhibition profile, 5 μL of serial diluted compounds were incubated with 5 μL of diluted PDE10 enzyme (BPS Bioscience, San Diego, Calif.) or tissue homogenate in a 384-well polystyrene assay plate (Corning, Corning, N.Y.) for 30 min at room temperature. After incubation, 10 μL of diluted fluorescein labeled cAMP or cGMP substrate were added and incubated for 60 min at room temperature. The reaction was stopped by adding 60 μL of diluted binding reagents and plates were read on an Envision (Perkin Elmer, Waltham, Mass.) for time resolved fluorescence resonance energy transfer. The data were analyzed with GraphPad Prism (La Jolla, Calif.).
The tabulated IC50 data represent an average IC50 data for each compound.
Background: TR-FRET usually uses a lanthanide donor and a delayed reading to cut background.
On to `COc1ncccc1-c1nccnc1Oc1ccc(C(=O)c2nc3ccccc3[nH]2)cc1` [Example 122, (1H-benzo[d]imidazol-2-yl)(4-(3-(2-methoxypyridin-3-yl)pyrazin-2-yloxy)phenyl)methanone], for which the pIC50 is above 7.60. Same read-out and setting: the figure for `CC(=O)N1CCC(c2nccnc2Oc2ccc(Nc3nc4ccccc4s3)nc2)CC1` [Example 249, 1-(4-(3-(6-(benzo[d]thiazol-2-ylamino)pyridin-3-yloxy)pyrazin-2-yl)piperidin-1-yl)ethanone] is 6.00 to 6.60; for `COc1cc(-c2nccnc2Oc2ccc(Nc3nc4ccccc4s3)cc2)ccn1` [Example 152, N-(4-(3-(2-methoxypyridin-4-yl)pyrazin-2-yloxy)phenyl)benzo[d]thiazol-2-amine] it is above 7.60. Still for that read-out and setting: with `O=C(c1ccc(Oc2nccnc2OCc2cccnc2)cc1)c1nc2ccccc2[nH]1` [Example 179, (1H-benzo[d]imidazol-2-yl)(4-(3-(pyridin-3-ylmethoxy)pyrazin-2-yloxy)phenyl)methanone] the figure was 6.60 to 7.00.

For `O=C1CCCC(c2nccnc2Oc2ccc(C(=O)c3nc4ccccc4[nH]3)cc2)C1` (racemic) [Example 210, (rac)-3-(3-(4-(1H-benzo[d]imidazole-2-carbonyl)phenoxy)pyrazin-2-yl)cyclohexanone], the pIC50 was above 7.60. Same read-out and setting: the figure for `OC[C@@H]1CCCN1c1nccnc1Oc1ccc(Nc2nc3ccccc3s2)cc1` [Example 76, (S)-(1-(3-(4-(benzo[d]thiazol-2-ylamino)phenoxy)pyrazin-2-yl)pyrrolidin-2-yl)methanol] is above 7.60. On the same count and under the same terms, with `O=C(c1ccc(Oc2nccnc2C2CCSCC2)cc1)c1nc2ccccc2[nH]1` [Example 222, 1H-BENZO[D]IMIDAZOLE-2-YL(4-(3-(TETRAHYDRO-2H-THIOPYRAN-4-YL)PYRAZIN-2-YLOXY)PHENYL)METHANONE] the figure was above 7.60; with `CC(=O)N1CCC(c2nccnc2Oc2ccc(C(=O)c3nc4ccccc4n3C)cc2)CC1` [Example 242, 1-(4-(3-(4-(1-methyl-1H-benzo[d]imidazole-2-carbonyl)phenoxy)pyrazin-2-yl)piperidin-1-yl)ethanone], above 7.60; with `O=C1CN(c2nccnc2Oc2ccc(Nc3nc4ccccc4s3)cc2)CCN1` [Example 90, 4-(3-(4-(benzo[d]thiazol-2-yl-amino)phenoxy)pyrazin-2-yl)-piperazin-2-one], above 7.60. On the same count and under the same terms, the figure for `COc1cccc(-c2nccnc2Oc2ccc(C(=O)c3nc4ccccc4[nH]3)cc2)c1` [Example 128, (1H-benzo[d]imidazol-2-yl)(4-(3-(3-methoxyphenyl)pyrazin-2-yloxy)phenyl)methanone] is above 7.60.

In the case of `Cc1ncsc1CCOc1nccnc1Oc1ccc(C(=O)c2nc3ccccc3[nH]2)cc1` [Example 170, (1H-benzo[d]imidazol-2-yl)(4-(3-(2-(4-methylthiazol-5-yl)ethoxy)pyrazin-2-yloxy)phenyl)methanone], the pIC50 is 6.60 to 7.00. Regarding `O=C(c1ccc(Oc2nccnc2OCCCc2cccnc2)cc1)c1nc2ccccc2[nH]1` [Example 178, (1H-benzo[d]imidazol-2-yl)(4-(3-(3-(pyridin-3-yl)propoxy)pyrazin-2-yloxy)phenyl)methanone], the pIC50 was 7.00 to 7.60. On the same count and under the same terms, with `COCCOc1nccnc1Oc1ccc(C(=O)c2nc3ccccc3[nH]2)cc1` [Example 165, (1H-benzo[d]imidazol-2-yl)(4-(3-(2-methoxyethoxy)pyrazin-2-yloxy)phenyl)methanone] the figure was 6.00 to 6.60; with `COc1ncccc1-c1nccnc1Oc1ccc(Nc2nc3ccccc3s2)c(F)c1` [Example 157, N-(2-fluoro-4-(3-(2-methoxypyridin-3-yl)pyrazin-2-yloxy)phenyl)benzo[d]thiazol-2-amine], 7.00 to 7.60; with `COCC(=O)N1CCC(c2nccnc2Oc2ccc(C(=O)c3nc4ccccc4n3C)cc2)CC1` [Example 243, 2-methoxy-1-(4-(3-(4-(1-methyl-1H-benzo[d]imidazole-2-carbonyl)phenoxy)pyrazin-2-yl)piperidin-1-yl)ethanone], above 7.60. The same measure, in the same setting: with `O=C(c1ccc(Oc2nccnc2-c2ccncc2)cc1)c1nc2ccccc2[nH]1` [Example 124, (1H-benzo[d]imidazol-2-yl)(4-(3-(pyridin-4-yl)pyrazin-2-yloxy)phenyl)methanone] the figure was above 7.60; with `c1ccc2sc(Nc3ccc(Oc4nccnc4C4CCCOC4)cc3)nc2c1` (stereo not drawn) [Example 193, N-(4-(3-(tetrahydro-2H-pyran-3-yl)pyrazin-2-yloxy)phenyl)benzo[d]thiazol-2-amine], above 7.60. Same read-out and setting: the figure for `O=C1CCC(c2nccnc2Oc2ccc(C(=O)c3nc4ccccc4[nH]3)cc2)CC1` [Example 195, 4-(2-(4-(1H-BENZO[D]IMIDAZOLE-2-CARBONYL)PHENOXY)PYRAZIN-3-YL)CYCLOHEXANONE] is above 7.60. Regarding `O=C(c1ccc(Oc2nccnc2Cl)cc1)c1nc2ccc(F)cc2[nH]1` [Example 4, [4-(3-CHLORO-PYRAZIN-2-YLOXY)-PHENYL]-(6-FLUORO-1H-BENZOIMIDAZOL-2-YL)-METHANONE], the pIC50 was 5.30 to 6.00.

Still in this experiment, the particulars now being: PDE10 enzyme inhibition; average IC50 data for each compound; read-out: Average IC50.
`O=C(c1ccc(Oc2nccnc2Oc2cccnc2)cc1)c1nc2ccccc2[nH]1` [drawing 851]: the pIC50 is 7.29. The same measure, in the same setting: the figure for `CN1CCC(c2nccnc2Oc2ccc(C(=O)c3nc4ccccc4[nH]3)cc2)CC1=O` (stereo not drawn) [drawing 926] is 8.22; for `COC[C@H](C)NC(=O)c1nccnc1Oc1ccc(C(=O)c2nc3ccccc3[nH]2)cc1` [drawing 802] it is 7.34. The same measure, in the same setting: with `COC[C@@H]1CCCN1c1nccnc1Oc1ccc(C(=O)c2nc3ccccc3[nH]2)cc1` the figure was 8.86. Still for that read-out and setting: with `O=C(c1ccc(Oc2nccnc2C2=CCOCC2)cc1)c1nc2ncccc2[nH]1` [drawing 879] the figure was 7.50; with `CC(=O)N1CCC(c2nccnc2Oc2ccc(C(=O)c3nc4ccccc4n3C)cc2)CC1` [drawing 965], 9.76.

Turning to `O=C(c1ccc(Oc2nccnc2C2=CCC(F)(F)CC2)cc1)c1nc2ccccc2[nH]1` [drawing 862], the negative-log IC50 (pIC50) was 7.85. `COC(=O)[C@@H]1CCN(c2nccnc2Oc2ccc(C(=O)c3nc4ccccc4[nH]3)cc2)C1` (stereo in doubt): the negative-log IC50 (pIC50) is 8.46. As to `Cn1c(C(=O)c2ccc(Oc3nccnc3Cl)cc2)nc2ccccc21`, the negative logarithm of the IC50 (pIC50) is 6.73. Regarding `Fc1ccc2sc(Nc3ccc(Oc4nccnc4C4CCOCC4)cc3)nc2c1` [drawing 881], the negative-log IC50 (pIC50) was 7.93. The same measure, in the same setting: the figure for `CN1CCC(c2nccnc2Oc2ccc(C(=O)c3nc4ccccc4[nH]3)cc2)=CC1=O` [drawing 921] is 8.73; for `O=C(c1ccc(Oc2nccnc2[C@@H]2CCC[C@H](O)C2)cc1)c1nc2ccccc2[nH]1` [drawing 907] it is 8.94. Turning to `COC[C@@H]1CCN(c2nccnc2Oc2ccc(Nc3nc4ccccc4s3)cc2)C1` (stereo in doubt), the pIC50 was 7.65.

Consider `O[C@@H]1CCC[C@H](c2nccnc2Oc2ccc(Nc3nc4ccccc4s3)cc2)C1` [drawing 910], for which the pIC50 is 8.65. Still for that read-out and setting: the figure for `N#Cc1cccc(-c2nccnc2Oc2ccc(C(=O)c3nc4ccccc4[nH]3)cc2)c1` [drawing 756] is 7.38; for `O=C(c1ccc(Oc2nccnc2OCCN2CCOCC2)cc1)c1nc2ccccc2[nH]1` [drawing 855] it is 7.05; for `CC(=O)N1CCC(c2nccnc2Oc2ccc(Nc3nc4ccccc4s3)cc2)CC1` [drawing 893] it is 10.23. Same read-out and setting: with `CCOc1nccnc1Oc1ccc(C(=O)c2nc3ccccc3[nH]2)cc1` the figure was 7.34; with `C[C@@H](F)C(=O)N1CCC(c2nccnc2Oc2ccc(C(=O)c3nc4ccccc4[nH]3)cc2)CC1` (stereo in doubt), 9.88; with `N#C[C@H]1CCN(c2nccnc2Oc2ccc(C(=O)c3nc4ccccc4[nH]3)cc2)C1` [drawing 829], 8.88.

For `N#Cc1ccc(-c2nccnc2Oc2ccc(Nc3nc4ccccc4s3)cc2)cn1` [drawing 777], the negative-log IC50 (pIC50) is 7.20. The same measure, in the same setting: with `O=C(c1ccc(Oc2nccnc2C2CCCC2)cc1)c1nc2ccccc2[nH]1` [drawing 949] the figure was 8.75. Same read-out and setting: the figure for `O=C(c1ccc(Oc2nccnc2C(=O)NCCc2ccccc2)cc1)c1nc2ccccc2[nH]1` [drawing 827] is 8.35. The same measure, in the same setting: with `CC(=O)N1CCC(c2nccnc2Oc2ccc(Nc3nc4ccccc4s3)cc2F)CC1` [drawing 984] the figure was 8.95. Take `c1ccc2[nH]c(Nc3ccc(Oc4nccnc4C4CCOCC4)cc3)nc2c1` [drawing 863]: the pIC50 is 10.00. In the case of `COC[C@@H]1CCCN1c1nccnc1Oc1ccc(Nc2nc3ccccc3s2)cc1` [drawing 719], the pIC50 was 8.03.

Consider `N#CC1(c2nccnc2Oc2ccc(Nc3nc4ccccc4s3)cc2)CCOCC1` [drawing 867], for which the pIC50 was 8.35. Still for that read-out and setting: the figure for `Cc1cc(-c2nccnc2Oc2ccc(C(=O)c3nc4ccccc4[nH]3)cc2)ccn1` [drawing 726] is 8.25.

Still in this experiment, the particulars now being: PDE10 enzyme inhibition; chiral compounds separated from racemic mixtures; read-out: IC50.
Take `O=C(c1ccc(Oc2nccnc2[C@H]2CCC[C@H](O)C2)cc1)c1nc2ccccc2[nH]1` [Example 273, (1H-benzo[d]imidazol-2-yl)(4-(3-((1S,3S)-3-hydroxycyclohexyl)pyrazin-2-yloxy)phenyl) methanone]: the pIC50 was above 7.60.
